One data set in a line: Henry solubility constant Hcp at 303 K (mol/(m3 Pa)). The settings on record: reference: Hovorka et al. (2002).
As to `CCOCCOC(C)=O` [2-ethoxyethyl ethanoate], the “Henry solubility constant Hcp at 303 K” value came out at 3. On the same count and under the same terms, under `COCCOC(C)=O` [2-methoxyethyl ethanoate] stands 3; under `C=CC#N` [2-propenenitrile], 0.076. The same measure, in the same setting: under `COC(=O)CC(C)=O` [3-oxobutanoic acid, methyl ester] stands 6.4. Still for that read-out and setting: under `COCC(=O)OC` [methyl methoxyacetate] stands 2.5.

The next data set in a line: Henry solubility constant Hcp at 298.15 K (mol/(m3 Pa)). The settings on record: reference: Hovorka et al. (2002).
Take `CC(C)CO` [2-methyl-1-propanol]: the “Henry solubility constant Hcp” value was 0.67. Still for that read-out and setting: under `O=C1CCCCC1` [cyclohexanone] stands 0.86; under `OC1CCCC1` [cyclopentanol], 2.2; under `O=C1CCCC1` [cyclopentanone], 0.82.

For the compound `CC#N` [ethanenitrile], the “Henry solubility constant Hcp” value was determined as 0.32. Still for that read-out and setting: the figure for `COC(C)=O` [methyl ethanoate] is 0.083.

The values above are taken from Sander's compilation of Henry's law constants (doi:10.1016/s0378-3812(02)00087-0).
